Tests used:
[1] = Chemical stability of Ach at body temperature (37 C, HPLC with UV detection); assay type: physicochemical
From the text: To determine the stability of acetylcholine at 37 C to help guide the reservoir sizes and locations, aliquots of reference acetylcholine and standard strength Miochol-E (acetylcholine, injectable, Novartis Pharmaceuticals) were stored in sterile glass containers at 37 C.

[2] = test system: right denervated orbicularis oculi; assay: Synergistic action of electric stimulation and Ach on denervated orbicularis oculi; assay type: in vivo, rabbit
From the text: A possible synergistic interaction between Ach and electric stimulation were observed as follows. After having injected an amount of Ach into the right denervated orbicularis oculi that produced no reaction, electric stimulation was delivered to the muscle at an intensity previously unable to produce a definitive blink.
In a subsequent test session, the right denervated orbicularis was first tested using electrical stimulation alone (prior to any Ach testing) as shown in Table III.
After the delivery of 200 ul of Ach to the right denervated orbicularis oculi, the right orbicularis oculi was allowed to relax to baseline position prior to Ach stimulation. No saline flush was performed. Electric stimulation was given at 10 msec phase duration at 3 volts.

[3] = test system: denervated orbicularis oculi; assay: Ach stimulation in the denervated rabbit model (Miochol-E injected into orbicularis oculi pocket); assay type: in vivo; set-up: key to eyelid response to Ach delivered: N = no response; C = complete eyelid closure
From the text: a) Two white New Zealand female rabbits were anesthetized by using 3-5% isofluorane inhalation and ketamine/xylazine and monitored by Heska monitor (SP02, heart rate, and rectal temperature). b) A pre-auricular incision was made the facial nerve was surgically sectioned and a five millimeter section was eliminated.
To determine the response of denervated orbicularis oculi in rabbits to stimulation with varying dosages of Miochol-E (acetylcholine chloride, injectable, Novartis pharmaceuticals) the FDA approved Miochol-E in 10 mg/ml, or 0.055M Ach (molar mass of 182 g/mol) was used to test the effects in the denervated rabbit model.
Methods: The rabbit was sedated in standard fashion, an eyelid incision was made 5 mm from the lash line and the Miochol E was injected into the orbicularis oculi pocket. Retesting was done at six weeks.

[4] = Full Strength Ach (10 mg/ml), 200 μl, denervated rabbit orbicularis oculi

CC(=O)OCC[N+](C)(C)C.[Cl-] [Ach, acetylcholine chloride]
stability at body temperature ([1]; 14 days in sterile glass at 37 C): stable | Peak Area (Ach concentration by HPLC-UV) ([1]; after storage at 37 C for 14 days in sterile glass): 56494 | eyelid response to electric stimulation after Ach delivery ([2]; after 200 ul of Ach, muscle relaxed to baseline, no saline flush, electric stimulation 10 msec phase duration at 3 volts): Reproducible complete closure blinks | eyelid reaction to injected Ach alone ([2]; an amount of Ach injected into the right denervated orbicularis oculi, before electric stimulation): no reaction | eyelid response to electric stimulation after Ach injection ([2]; electric stimulation at an intensity previously unable to produce a definitive blink, after Ach amount that produced no reaction, over three stimulated partial blink motions): closed tightly for four minutes | muscle contraction / eyelid closure (conclusion from experiments) ([3]; Ach delivered to the orbicularis in a diffuse fashion, at certain concentrations and volumes): tonic, prolonged closure | eyelid response to Ach delivered ([3]; Ach dilution 1:1, 0.5 μl, denervated rabbit orbicularis oculi): N | eyelid response to Ach delivered ([3]; Ach dilution 1:1, 1 μl, denervated rabbit orbicularis oculi): N | eyelid response to Ach delivered ([3]; Ach dilution 1:1, 5 μl, denervated rabbit orbicularis oculi): N | eyelid response to Ach delivered ([3]; Ach dilution 1:1, 10 μl, denervated rabbit orbicularis oculi): N | eyelid response to Ach delivered ([3]; Ach dilution 1:1, 25 μl, denervated rabbit orbicularis oculi): N | eyelid response to Ach delivered ([3]; Ach dilution 1:1, 50 μl, denervated rabbit orbicularis oculi): N | eyelid response to Ach delivered ([3]; Ach dilution 1:1, 100 μl, denervated rabbit orbicularis oculi): N | eyelid response to Ach delivered ([3]; Ach dilution 1:2, 0.5 μl, denervated rabbit orbicularis oculi): N | eyelid response to Ach delivered ([3]; Ach dilution 1:2, 1 μl, denervated rabbit orbicularis oculi): N | eyelid response to Ach delivered ([3]; Ach dilution 1:2, 5 μl, denervated rabbit orbicularis oculi): N | eyelid response to Ach delivered ([3]; Ach dilution 1:2, 10 μl, denervated rabbit orbicularis oculi): N | eyelid response to Ach delivered ([3]; Ach dilution 1:2, 25 μl, denervated rabbit orbicularis oculi): N | eyelid response to Ach delivered ([3]; Ach dilution 1:2, 50 μl, denervated rabbit orbicularis oculi): N | eyelid response to Ach delivered ([3]; Ach dilution 1:2, 100 μl, denervated rabbit orbicularis oculi): N | eyelid response to Ach delivered ([3]; Ach dilution 1:5, 0.5 μl, denervated rabbit orbicularis oculi): N | eyelid response to Ach delivered ([3]; Ach dilution 1:5, 1 μl, denervated rabbit orbicularis oculi): N | eyelid response to Ach delivered ([3]; Ach dilution 1:5, 5 μl, denervated rabbit orbicularis oculi): N | eyelid response to Ach delivered ([3]; Ach dilution 1:5, 10 μl, denervated rabbit orbicularis oculi): N | eyelid response to Ach delivered ([3]; Ach dilution 1:5, 25 μl, denervated rabbit orbicularis oculi): N | eyelid response to Ach delivered ([3]; Ach dilution 1:5, 50 μl, denervated rabbit orbicularis oculi): N | eyelid response to Ach delivered ([3]; Ach dilution 1:5, 100 μl, denervated rabbit orbicularis oculi): N | eyelid response to Ach delivered ([3]; Ach dilution 1:10, 0.5 μl, denervated rabbit orbicularis oculi): N | eyelid response to Ach delivered ([3]; Ach dilution 1:10, 1 μl, denervated rabbit orbicularis oculi): N | eyelid response to Ach delivered ([3]; Ach dilution 1:10, 5 μl, denervated rabbit orbicularis oculi): N | eyelid response to Ach delivered ([3]; Ach dilution 1:10, 10 μl, denervated rabbit orbicularis oculi): N | eyelid response to Ach delivered ([3]; Ach dilution 1:10, 25 μl, denervated rabbit orbicularis oculi): N | eyelid response to Ach delivered ([3]; Ach dilution 1:10, 50 μl, denervated rabbit orbicularis oculi): N | eyelid response to Ach delivered ([3]; Ach dilution 1:10, 100 μl, denervated rabbit orbicularis oculi): N | eyelid response to Ach delivered ([3]; Full Strength Ach (10 mg/ml), 0.5 μl, denervated rabbit orbicularis oculi): N | eyelid response to Ach delivered ([3]; Full Strength Ach (10 mg/ml), 1 μl, denervated rabbit orbicularis oculi): N | eyelid response to Ach delivered ([3]; Full Strength Ach (10 mg/ml), 5 μl, denervated rabbit orbicularis oculi): N | eyelid response to Ach delivered ([3]; Full Strength Ach (10 mg/ml), 10 μl, denervated rabbit orbicularis oculi): N | eyelid response to Ach delivered ([3]; Full Strength Ach (10 mg/ml), 25 μl, denervated rabbit orbicularis oculi): N | eyelid response to Ach delivered ([3]; Full Strength Ach (10 mg/ml), 50 μl, denervated rabbit orbicularis oculi): N | eyelid response to Ach delivered ([3]; Full Strength Ach (10 mg/ml), 100 μl, denervated rabbit orbicularis oculi): N | duration of complete eyelid closure [3, 4]: 1 min | eyelid response to Ach delivered [3, 4]: C
